ChEMBL document CHEMBL1145110, “Oxidosqualene cyclase inhibitors as antimicrobial agents” (J Med Chem, 2003)

Experiments:
[1] = molecular target: T1, Lanosterol synthase (Rattus norvegicus, UniProt P48450); test: Tested for Oxidosqualene-lanosterol cyclase inhibition in rat
T1 sequence (P48450 whole entry): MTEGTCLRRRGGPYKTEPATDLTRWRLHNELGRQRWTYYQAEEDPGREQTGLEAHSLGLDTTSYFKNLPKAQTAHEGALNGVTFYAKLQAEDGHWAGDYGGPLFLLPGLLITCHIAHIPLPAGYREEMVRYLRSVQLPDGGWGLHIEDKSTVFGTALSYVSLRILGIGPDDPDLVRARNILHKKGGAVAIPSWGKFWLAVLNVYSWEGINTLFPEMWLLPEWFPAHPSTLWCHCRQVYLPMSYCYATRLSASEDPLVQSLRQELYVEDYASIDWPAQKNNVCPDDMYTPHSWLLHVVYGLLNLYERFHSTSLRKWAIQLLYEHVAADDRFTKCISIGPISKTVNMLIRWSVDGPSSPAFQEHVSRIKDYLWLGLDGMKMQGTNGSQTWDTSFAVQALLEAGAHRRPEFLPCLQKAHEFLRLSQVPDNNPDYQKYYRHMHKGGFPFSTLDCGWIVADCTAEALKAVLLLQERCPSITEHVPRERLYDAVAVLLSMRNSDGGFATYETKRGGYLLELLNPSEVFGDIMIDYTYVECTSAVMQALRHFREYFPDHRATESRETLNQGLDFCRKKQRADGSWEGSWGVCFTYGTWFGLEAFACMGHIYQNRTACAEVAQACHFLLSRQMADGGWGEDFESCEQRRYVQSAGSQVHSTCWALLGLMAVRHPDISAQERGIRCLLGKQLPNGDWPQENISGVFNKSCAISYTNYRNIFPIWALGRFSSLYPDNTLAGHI

[2] = test system: NIH3T3; test: Tested for inhibition of growth of NIH3T3 cells a in a pathogen cell culture assay; type: functional; conditions: Mus musculus, read-out: ED50 (the source's name)
[3] = test system: Trypanosoma cruzi; test: Tested for inhibition of growth of Trypanosoma cruzi in a pathogen cell culture assay; type: functional; conditions: read-out: ED50 (the source's name)
[4] = test system: Pneumocystis carinii; test: Tested for inhibition of growth of Pneumocystis carinii in a pathogen cell culture assay, at a concentration of 10 uM; type: functional
[5] = test system: Leishmania mexicana; test: Tested for inhibition of growth of Leishmania mexicana in a pathogen cell culture assay; type: functional; conditions: read-out: ED50 (the source's name)
[6] = test system: Trypanosoma brucei; test: Tested for inhibition of growth of Trypanosoma brucei in a pathogen cell culture assay; type: functional; conditions: read-out: ED50 (the source's name)
[7] = test system: Toxoplasma gondii; test: Tested for inhibition of growth of Toxoplasma gondii in a pathogen cell culture assay, at a concentration of 10 uM; type: functional
[8] = test system: Trypanosoma cruzi; test: Tested for inhibition of growth Trypanosoma cruzi in a pathogen cell culture assay; type: functional; conditions: read-out: ED50 (the source's name)
[9] = test system: Trypanosoma brucei; test: Tested for inhibition of growth Trypanosoma brucei in a pathogen cell culture assay; type: functional; conditions: read-out: ED50 (the source's name)
[10] = test system: Pneumocystis carinii; test: Tested for inhibition of growth Pneumocystis carinii in a pathogen cell culture assay, at a concentration of 10 uM; type: functional
[11] = test system: Toxoplasma gondii; test: Tested for inhibition of growth Toxoplasma gondii in a pathogen cell culture assay, at a concentration of 10 uM; type: functional
[12] = test system: Leishmania mexicana; test: Tested for inhibition of growth Leishmania mexicana in a pathogen cell culture assay; type: functional; conditions: read-out: ED50 (the source's name)

| SMILES | IC50 [1] [nM] | EC50 [2] [nM] | EC50 [3] [nM] | inhibition at 10 µM [4] [%] | EC50 [5] [nM] | EC50 [6] [nM] | inhibition at 10 µM [7] [%] | EC50 [8] [nM] | EC50 [9] [nM] | inhibition at 10 µM [10] [%] | inhibition at 10 µM [11] [%] | EC50 [12] [nM] |
| --- | --- | --- | --- | --- | --- | --- | --- | --- | --- | --- | --- | --- |
| O=C(c1ccc(Cl)cc1)c1ccc(OC2CN3CCC2CC3)cc1 (centres undefined) | 160 | > 10000 | 1000 | 81 | 400 | > 10000 | 48 | – | – | – | – | – |
| CCN(CC)CCOc1ccc(-c2ccccc2)cc1 | – | > 10000 | – | – | – | – | – | > 10000 | > 10000 | 95 | < 1 | 10000 |
| O=C(c1ccc(Cl)cc1)c1ccc(OCCN2CCN(CCO)CC2)cc1 | – | > 10000 | – | – | – | – | – | 1000 | > 10000 | 95 | 28 | 400 |
| CN(C)CCCOc1ccc(-c2ccccc2)cc1 | 2500 | > 10000 | – | – | – | – | – | 1000 | > 10000 | 95 | 17 | 400 |
| C=CCN(C)CCCCCCOc1ccc(C(=O)c2ccc(Cl)cc2)c(F)c1 | 49 | – | – | – | – | – | – | – | – | – | – | – |
| CN(C)CCCOc1ccc(C(=O)c2ccc(Cl)cc2)cc1 | – | > 10000 | – | – | – | – | – | 1000 | > 10000 | 95 | 17 | 400 |
| OCCN1CCN(CCOc2ccc(-c3ccccc3)cc2)CC1 | – | > 10000 | – | – | – | – | – | 1000 | > 10000 | 95 | 28 | 400 |
